Reference: patent publication US20070087988A1, “Hematopoietic progenitor kinase 1 for modulation of an immune response” (New York University, priority 2005, published 2007)

How the values were obtained:
[1] = system: wild type HEK 293-EBNA cell line; assay: IVK assay of HA-HPK1 from wild type HEK 293-EBNA cells (no EP2/EP4); format: cell-based, human; settings: absence of EP2 and EP4 receptor, PGE2 stimulation
[2] = system: T cells; assay: FACS of TCR-stimulated T cells: Foxp3 expression and side-scatter profile; format: cell-based, mouse
Excerpt: This is due in part to the fact that HPK^−/− T cells produce more IL-2. However, other factors may play a role in the increased percentage of cells expressing CD25. To determine whether regulatory T cell (Treg) transcription factor, Foxp3, was a factor, the expression of […] in HPK^−/− cells was examined in this population. It has been shown that PGE2 induces the expression of Foxp3 in both human and mouse T cells. Because of the inhibitory nature of these T cell subsets, there was a question of whether the conditions of stimulation generated fewer Tregs in the HPK1^−/− culture, as this might explain the enhanced functionality of these T cells.
However, a decrease was detected in the number of cells in the side-scatter profile of wild type T cells exposed to PGE2, indicating a decrease in cell viability. […] Indeed, when these cells were stained for annexin V to determine the amount of apoptosis, PGE2 did increase the number of wild type cells undergoing apoptosis by over 75%, compared to 47% in cells not treated with PGE2.

[3] = system: CD4+ T cells; assay: Intracellular IL-2 staining of CD4+ T cells (FACS); format: cell-based, mouse
Description: Purified naïve wild type and HPK1^−/− splenocytes were expanded with 10 μg/ml ConA for three days with or without 10 nM PGE2. 10^6 cells were seeded onto a 96-well plate and cells were either left unstimulated or were stimulated with 1 μg/ml anti-CD3 and anti-CD28 for 6 hours in the presence of GolgiStop™ (BD Pharmingen). Cells were washed with buffer containing 0.1% saponin and 0.1% BSA followed by incubation with anti-IL-2-PE for 30 min. IL-2 levels were read by flow cytometry using FACSCalibur™.
RBC-lysed wild type and HPK1^−/− splenocytes were stimulated with or without 1 nM PGE2 and 2 μg/ml anti-CD3 plus 1 μg/ml anti-CD28 for 48 hours in the presence of GolgiStop™ (BD Pharmingen) for the last five hours of culture. For profiling experiments, RBC-lysed splenocytes were stimulated with anti-CD3 and anti-CD28 for 24 hours, and GolgiStop was added in the last five hours. Cells were then fixed with 2% paraformaldehyde followed by permeabilization with a buffer containing 0.1% saponin and 0.1% BSA and the different conjugated antibodies for 30 min. Cytokine levels were read by flow cytometry using FACSCalibur™ and analyzed using Flowjo software.

[4] = system: HPK1; assay: HPK1 immune complex in vitro kinase (IVK) assay, endogenous HPK1 from treated Jurkat cells; format: cell-based, human; settings: Jurkat cells, 10 pM PGE2
[5] = system: murine HPK1; assay: IVK assay of HA-tagged murine HPK1 (wild type and mutants) transfected into Jurkat cells; format: cell-based, mouse; settings: Jurkat transfectants
Excerpt: The pcDNA3 vector containing mouse cDNA encoding the HA-tagged wild type murine HPK1 and a proline-rich-deleted construct were constructed by Dr. F. Kiefer (Liu et al., 2000, J. Immunol. 165:1417). QuickChange™ mutagenesis system was used to alter the wild type HPK1 construct to encode the desired point mutations (Stratagene, La Jolla, Calif.). Mutated constructs were sequenced to verify the presence of the desired mutation and for the absence of PCR-generated mutations.
Jurkat T cells (1.5×10^7) were transfected as described in (Chang et al., 1998, Mol. Cell. Biol. 18:4986). Whole cell lysates derived from resting or stimulated transfectants were subjected to immunoprecipitations by the indicated antibodies, and were subjected to in vitro kinase reactions as described in (Kiefer et al., 1996, EMBO J. 15:7013 and (Sawasdikosol et al., 2003, Blood 101:3687). Anti-murine HPK1 #7 antibody was used to detect the ectopically expressed HPK wild type and mutant murine HPK1.
To assess the role of the proline-rich motifs in PGE2-induced HPK1 activation, cells were transfected with constructs that encoded either the HA-tagged wild type HPK1 or a mutant form in which the P1, P2, and P4 proline-rich motifs (HA-ΔP-HPK1) were deleted (FIG. 8A). Transfectants were left untreated, stimulated by 10 pM of PGE2, or stimulated by TCR crosslinking. The ectopically expressed HPK1 proteins were subjected to anti-HA immunoprecipitation and were subjected to IVK assay. […] This limits the possibility that adapter proteins play a role in this process.
To assess the importance of arginine 168, arginine 169 and serine 171 in PGE2-induced HPK1 activation, a panel of mutant HPK1 expression constructs that encode a point mutation at each of these amino acids was created. In these mutants, arginines were changed to lysines and serine was changed to alanine. These mutant HPK1 constructs were transfected into Jurkat cells and the ectopically expressed HA-tagged HPK1 were immunoprecipitated from resting or PGE2 stimulated cells.

[6] = system: T cells; assay: Apoptosis of TCR-stimulated T cells, annexin V / 7AAD staining; format: cell-based, mouse
[7] = system: T cells; assay: IL-2 production by ELISA of T cell supernatants; format: cell-based, mouse
Description: Supernatants from the proliferation assay were collected for ELISA prior to addition of ^3H-thymidine. The protocol used for ELISA followed the instructions from BD Pharmingen.
Supernatants from the proliferation assay were collected for ELISA prior to addition of ^3H thymidine. For profiling experiments, supernatants were collected as above, with variable time points. […] Cells were then washed with PBS, re-seeded in fresh medium and stimulated with 2 μg/ml plate bound anti-CD3 and 1 μg/ml soluble anti-CD28 for eight hours and supernatants were collected for analysis. Protocol used for ELISA follows BD Pharmingen instructions.

[8] = Example 4, 10 nM PGE2, restimulated anti-CD3/anti-CD28
[9] = Example 4, ELISA, addition of PGE2
[10] = Example 7, 3 day TCR stimulated cells, ELISA, 1 nM PGE2

CCCCC[C@H](O)/C=C/[C@H]1[C@H](O)CC(=O)[C@@H]1C/C=C\CCCC(=O)O [PGE2, prostaglandin E2]
HPK1 kinase activity (IVK), wild type HEK 293-EBNA [1]: failed to respond | Foxp3 expression ([2]; HPK+/+ or HPK−/− cells, TCR crosslinking 3 days, with versus without PGE2): did not induce a higher Foxp3 expression | number of cells in the side-scatter profile (cell viability), wild type T cells ([2]; exposed to PGE2): decrease | pattern of side-scatter, HPK1−/− T cells ([2]; with or without PGE2): no difference | CD4+ HPK1−/− cells still producing IL-2 after PGE2 addition [3, 8]: over 45% | wild type cells producing IL-2 after PGE2 addition [3, 8]: less than 10% | CD4+ HPK1−/− T cells still producing IL-2 after co-culture with PGE2 ([3]; Example 7, 1 nM PGE2, 48 hours): over 22% | wild type cells producing IL-2 after co-culture with PGE2 ([3]; Example 7, 1 nM PGE2, 48 hours): < 5% | HPK1 catalytic activity (IVK) [4]: activate the catalytic activity of HPK1 | kinase response of HA-HPK1 (wild type) ([5]; 10 pM PGE2): responded competently | kinase response of HPK1 proline-rich deleted mutant (HA-ΔP-HPK1) ([5]; 10 pM PGE2): responded to PGE2 stimulation | kinase response of HPK1 serine 171 to alanine mutant to PGE2 ([5]; PGE2 stimulated): ablated the response | reduction of responsiveness to PGE2 stimulation, HPK1 arginine to lysine mutation at residue 168 or 169 ([5]; PGE2 stimulated): approximately 90% | wild type cells undergoing apoptosis (annexin V) ([6]; three days of TCR stimulation with PGE2, 47% in cells not treated with PGE2): over 75% | rate of HPK1−/− T cell apoptosis ([6]; three days of TCR stimulation, addition of PGE2): did not significantly increase | percentage of IL-2 inhibition, HPK1−/− T cells [7, 9]: ~30% | percentage of IL-2 inhibition, wild type T cells [7, 9]: ~84% | inhibition of IL-2 production, HPK1−/− T cells [7, 10]: ~26% | inhibition of IL-2 production, wild type cells [7, 10]: ~88%
